Assay results as given in ChEMBL document CHEMBL1137357, “Further synthetic and biological studies on vitamin D hormone antagonists based on C24-alkylation and C2alpha-functionalization of 25-dehydro-1alpha-hydroxyvitamin D(3)-26,23-lactones” (J Med Chem, 2006).

biological target: T1, Vitamin D3 receptor (Homo sapiens) (UniProt P11473); assay: Antagonist activity against 1-alpha,25-dihydroxy vitamin D3-induced HL60 cell differentiation by NBT reduction method relative to TEI-9647; type: functional, cell-based; set-up: scale not given: the % may be the effect or the level left; settings: HL-60
T1 sequence (whole entry): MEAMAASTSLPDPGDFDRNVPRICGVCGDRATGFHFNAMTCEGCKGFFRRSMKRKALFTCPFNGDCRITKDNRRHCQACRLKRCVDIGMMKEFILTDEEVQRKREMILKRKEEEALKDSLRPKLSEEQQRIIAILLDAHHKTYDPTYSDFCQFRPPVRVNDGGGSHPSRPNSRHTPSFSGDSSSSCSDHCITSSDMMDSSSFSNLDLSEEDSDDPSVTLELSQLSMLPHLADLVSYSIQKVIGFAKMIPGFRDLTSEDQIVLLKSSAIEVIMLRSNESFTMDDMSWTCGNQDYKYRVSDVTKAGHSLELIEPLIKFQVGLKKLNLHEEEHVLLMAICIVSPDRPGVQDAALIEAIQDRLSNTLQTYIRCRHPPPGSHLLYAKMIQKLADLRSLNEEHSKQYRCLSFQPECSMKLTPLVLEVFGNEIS

Compound | Activity [%]
C=C1C[C@@H](C[C@@H](C)[C@H]2CC[C@H]3/C(=C/C=C4/C[C@@H](O)C[C@H](O)C4=C)CCC[C@]23C)OC1=O | 7
C=C1/C(=C\C=C2/CCC[C@]3(C)[C@@H]([C@H](C)C[C@H]4OC(=O)C(=C)[C@@H]4CCC)CC[C@@H]23)C[C@@H](O)C[C@@H]1O | 8
C=C1C[C@@H](C[C@@H](C)[C@H]2CC[C@H]3/C(=C/C=C4/C[C@@H](O)[C@H](C)[C@H](O)C4=C)CCC[C@]23C)OC1=O | 38
C=C1C(=O)O[C@H](C[C@@H](C)[C@H]2CC[C@H]3/C(=C/C=C4/C[C@@H](O)[C@H](C)[C@H](O)C4=C)CCC[C@]23C)[C@@H]1C | 476
C=C1/C(=C\C=C2/CCC[C@]3(C)[C@@H]([C@H](C)C[C@@H]4OC(=O)C(=C)[C@H]4CC(C)C)CC[C@@H]23)C[C@@H](O)[C@H](C)[C@@H]1O | 229
C=C1C(=O)O[C@@H](C[C@@H](C)[C@H]2CC[C@H]3/C(=C/C=C4/C[C@@H](O)[C@H](C)[C@H](O)C4=C)CCC[C@]23C)[C@@H]1C | 6190
C=C1/C(=C\C=C2/CCC[C@]3(C)[C@@H]([C@H](C)C[C@H]4OC(=O)C(=C)[C@H]4CC(C)C)CC[C@@H]23)C[C@@H](O)[C@H](OCCCO)[C@@H]1O | 25
C=C1/C(=C\C=C2/CCC[C@]3(C)[C@@H]([C@H](C)C[C@H]4OC(=O)C(=C)C4(C)C)CC[C@@H]23)C[C@@H](O)C[C@@H]1O | 16
C=C1/C(=C\C=C2/CCC[C@]3(C)[C@@H]([C@H](C)C[C@H]4OC(=O)C(=C)[C@@H]4CCCC)CC[C@@H]23)C[C@@H](O)C[C@@H]1O | 4
C=C1/C(=C\C=C2/CCC[C@]3(C)[C@@H]([C@H](C)C[C@H]4OC(=O)C(=C)[C@@H]4C)CC[C@@H]23)C[C@@H](O)C[C@@H]1O | 7
C=C1C(=O)O[C@@H](C[C@@H](C)[C@H]2CC[C@H]3/C(=C/C=C4/C[C@@H](O)[C@H](OCCCO)[C@H](O)C4=C)CCC[C@]23C)[C@@H]1C | 1740
C=C1/C(=C\C=C2/CCC[C@]3(C)[C@@H]([C@H](C)C[C@@H]4OC(=O)C(=C)[C@@H]4C)CC[C@@H]23)C[C@@H](O)C[C@@H]1O | 220
C=C1/C(=C\C=C2/CCC[C@]3(C)[C@@H]([C@H](C)C[C@H]4OC(=O)C(=C)[C@H]4CC(C)C)CC[C@@H]23)C[C@@H](O)[C@H](C)[C@@H]1O | 50

Continued, values first:

Activity [%] | Compound
913 | C=C1/C(=C\C=C2/CCC[C@]3(C)[C@@H]([C@H](C)C[C@@H]4OC(=O)C(=C)[C@H]4CCC)CC[C@@H]23)C[C@@H](O)[C@H](CCCO)[C@@H]1O
124 | C=C1/C(=C\C=C2/CCC[C@]3(C)[C@@H]([C@H](C)C[C@H]4OC(=O)C(=C)[C@@H]4CCC)CC[C@@H]23)C[C@@H](O)[C@H](OCCCO)[C@@H]1O
2990 | C=C1C[C@H](C[C@@H](C)[C@H]2CC[C@H]3/C(=C/C=C4/C[C@@H](O)[C@H](CCCO)[C@H](O)C4=C)CCC[C@]23C)OC1=O
117 | C=C1/C(=C\C=C2/CCC[C@]3(C)[C@@H]([C@H](C)C[C@H]4OC(=O)C(=C)[C@H]4CCC)CC[C@@H]23)C[C@@H](O)[C@H](CCCO)[C@@H]1O
100 | C=C1C[C@@H](C[C@@H](C)[C@H]2CC[C@H]3/C(=C/C=C4/C[C@@H](O)[C@H](CCCO)[C@H](O)C4=C)CCC[C@]23C)OC1=O
170 | C=C1/C(=C\C=C2/CCC[C@]3(C)[C@@H]([C@H](C)C[C@H]4OC(=O)C(=C)[C@H]4CCC)CC[C@@H]23)C[C@@H](O)[C@H](C)[C@@H]1O
2910 | C=C1/C(=C\C=C2/CCC[C@]3(C)[C@@H]([C@H](C)C[C@@H]4OC(=O)C(=C)[C@@H]4CCCC)CC[C@@H]23)C[C@@H](O)[C@H](C)[C@@H]1O
25 | C=C1/C(=C\C=C2/CCC[C@]3(C)[C@@H]([C@H](C)C[C@H]4OC(=O)C(=C)[C@@H]4CC)CC[C@@H]23)C[C@@H](O)[C@H](OCCCO)[C@@H]1O
158 | C=C1/C(=C\C=C2/CCC[C@]3(C)[C@@H]([C@H](C)C[C@@H]4OC(=O)C(=C)[C@H]4CC)CC[C@@H]23)C[C@@H](O)[C@H](OCCCO)[C@@H]1O
517 | C=C1/C(=C\C=C2/CCC[C@]3(C)[C@@H]([C@H](C)C[C@@H]4OC(=O)C(=C)[C@@H]4C)CC[C@@H]23)C[C@@H](O)[C@H](CCCO)[C@@H]1O
388 | C=C1/C(=C\C=C2/CCC[C@]3(C)[C@@H]([C@H](C)C[C@@H]4OC(=O)C(=C)[C@H]4CC(C)C)CC[C@@H]23)C[C@@H](O)[C@H](CCCO)[C@@H]1O
1 | C=C1/C(=C\C=C2/CCC[C@]3(C)[C@@H]([C@H](C)C[C@H]4OC(=O)C(=C)[C@@H]4CCCC)CC[C@@H]23)C[C@@H](O)[C@H](C)[C@@H]1O
205 | C=C1/C(=C\C=C2/CCC[C@]3(C)[C@@H]([C@H](C)C[C@@H]4OC(=O)C(=C)[C@H]4CCCC)CC[C@@H]23)C[C@@H](O)[C@H](OCCCO)[C@@H]1O
573 | C=C1/C(=C\C=C2/CCC[C@]3(C)[C@@H]([C@H](C)C[C@H]4OC(=O)C(=C)[C@@H]4CCC)CC[C@@H]23)C[C@@H](O)[C@H](CCCO)[C@@H]1O
1160 | C=C1/C(=C\C=C2/CCC[C@]3(C)[C@@H]([C@H](C)C[C@@H]4OC(=O)C(=C)[C@@H]4CCCC)CC[C@@H]23)C[C@@H](O)[C@H](CCCO)[C@@H]1O
18 | C=C1/C(=C\C=C2/CCC[C@]3(C)[C@@H]([C@H](C)C[C@H]4OC(=O)C(=C)[C@H]4CC)CC[C@@H]23)C[C@@H](O)[C@H](CCCO)[C@@H]1O
